Measured values from US12245589B2, “Omega-alicyclic tunicamycins and analogs” (priority 2022, dated 2025).
Entries after “also recorded” stand apart in the source; their conditions may differ.

Experiments:
[1] = tested on: Mycobacterium tuberculosis (Mtb); conditions: compared with natural tunicamycin; cited from earlier work
[2] = tested on: Mycobacterium avium subsp. paratuberculosis (MAP) strain K-10; experiment: Antibiotic disc assay on agar plates, MAP strain K-10; conditions: antibiotic discs on the plate for 13 days, FIG. 15C
[3] = tested on: cultured mammalian cell lines (HEK293, HepG2, Raji cells); conditions: cell line not given; cited from earlier work
Mycobacterium smegmatis = experiment: Microtiter plate bioassay, mycobacterial growth inhibition (MIC); assay type: cell-based; conditions: M. smegmatis grown in TYG for 6 days at 37° C., FIG. 16
Experimental: (§1) In each plate, left two columns are treated with DMSO, center two columns are treated with tunicamycin; right two panels are treated with TunR2. The concentration in μg/mL is indicated on the right. Arrows show the concentration at which there is mycobacterial growth inhibition (MIC), or biofilm formation is blocked (MBFC).
The inventors have shown that tunicamycins (including the modified TunR1, TunR2, and OAT-type tunicamycins) have potent antimycobacterial activity (for example, MIC 0.5 μg·mL^−1 for TunR2 against M. smegmatis, as shown in FIG. 16.
(§2) Tunicamycins are known to inhibit the biosynthesis of bacterial cell wall, for example by blocking the peptidoglycan and teichoic layers. The Mycobacterium genus is characterized by unusual and complex cell walls composed of three distinct layers, peptidoglycan (PG), arabinogalactan (AG) and mycolic acids (MA), which are well characterized targets for antimycobacterial drugs (K A Abrahams & G S Besra, 2018, “Mycobacterial cell wall biosynthesis: a multifaceted antibiotic target,” Parasitology 145: 116-133). The MA and AG are also components of mycobacterial biofilms, an extracellular matrix with various pathogenic functions.

[4] = tested on: Mycobacterium smegmatis biofilm; experiment: Microtiter plate bioassay, biofilm formation (MBFC); assay type: cell-based; conditions: M. smegmatis grown in TYG for 6 days at 37° C., FIG. 16
Experimental: as §1, §2

| Compound | activity on MAP strain K-10 [2] | also measured |
| --- | --- | --- |
| CCCCCCCCC(=O)N[C@H]1[C@H](O[C@H]2O[C@H](CO)[C@@H](O)[C@H](O)[C@H]2NC(=O)CCCCCCCC)O[C@H](C[C@@H](O)[C@H]2O[C@@H](n3ccc(=O)[nH]c3=O)[C@H](O)[C@@H]2O)[C@H](O)[C@@H]1O [Tun-9,9] |  | potency relative to natural tunicamycin against Mtb [1]: 5 times |
| CC1(C)S[C@@H]2[C@H](NC(=O)C(C(=O)O)c3ccccc3)C(=O)N2[C@H]1C(=O)O (stereo partly shown) [carbenicillin] | resistant | activity on MAP strain K-10 ([2]; listed as Carbenicillin): low inhibitions at high concentrations |
| CO/N=C(\C(=O)N[C@@H]1C(=O)N2C(C(=O)[O-])=C(C[n+]3cccc4c3CCCC4)CS[C@H]12)c1csc(N)n1 [cefquinome] | resistant; also recorded: low inhibitions at high concentrations |  |
| CCCCCCCCC1=C(CCCCCCCC(=O)O)C1 [sterulic acid] | resistant |  |
| CC(C)CCOc1ccc(NC(=S)Nc2ccc(OCCC(C)C)cc2)cc1 [thiocarlide] | resistant |  |
| tunicamycin | perform well | LD50 [3]: > 400 µg/mL; MIC (mycobacterial growth inhibition) (Mycobacterium smegmatis): 2 µg/mL; Minimal Biofilm Formation Concentration, MBFC [4]: 1 µg/mL |
